Experimental data taken from US5310938A, “Substituted arylpyrrole compounds” (American Cyanamid Company, priority 1993, dated 1994).
“And” between values parts separate entries of the source, which are not always exact repeats. Identical values can stand only once. Like-named read-outs stand apart in the source and are kept apart here.

Experiments:
Psoroptes cuniculi = experiment: Filter paper contact test against Psoroptes cuniculi (Rabbit Ear Mite); type: in vivo; details: Psoroptes ovis
Experimental: On the day prior to the test initiation the drugs to be evaluated are dissolved in acetone and diluted to the desired concentrations. The concentration is calculated so that 400 μl contains the amount of test compound to be placed on each filter paper. 400 μl of this solution is pipetted onto a top (3.7 cm dia.) and bottom (3.5 cm dia.) filter paper disks which are then placed on a ceramic plate to dry. There is a rough and smooth side to the filter paper. Drug should be applied to the rough side which is placed up while drying. When dry the two disks are placed in a Petri dish with the rough sides facing in, separated by one 3 mm glass bead. Dishes are held at room temperature overnight if done the day before the test.
Scab (containing mites) is collected from the ears of infested rabbits the morning of the test. This material is placed in a large Petri dish under an illuminated magnifier. Mites crawl out of the scab and are easily collected on the point of a dissecting needle or one prong of a pair of fine forceps. The top filter paper in each dish is removed and 12 mites are placed on the bottom disk and the top paper replaced. Before replacing the top of the Petri dish the rim of the dish is smeared with Vaseline to trap any escaping mites.
For evaluation tests there are generally 4 replicates of each dose which are counted at 24 hours. After mites are added to the dishes, the dishes in each replicate are placed in a tray which is then placed in a plastic bag with several wet towels and held at room temperature.
After 24 hours dishes are examined under a dissecting scope. Each dish is opened carefully and the top filter paper removed and saved. A 1/2 cm circle is drawn on the bottom filter paper and the paper gently wet in the area of the circle. All mites from the dish are transferred into the wet circle area and counted. The top cover is replaced on each dish and the dishes set aside for at least 15 minutes. After standing the dishes are examined and the mites remaining on the circle counted. These mites are dead. Percent mortality of the mites is then calculated for each treatment.

Ctenocephalides felis = experiment: Filter paper contact test against the cat flea; type: in vivo; details: 20.0 μg/cm^2, 24 hour
Experimental: This test is conducted in the same manner as the mite filter paper test described in Example 2 with the following exceptions:
(1) only one filter paper is used on the bottom of the dish;
(2) Unfed fleas that have emerged from pupae within the last 24 hours are used for the test. Fleas are initially collected in glass vials and then temporarily immobilized by placing the vials in ice. Once the fleas are no longer active, vials are opened and fleas dumped into Petri dishes. The number of fleas per dish will vary but generally contain 8-12 fleas.
(3) Dishes are held for 24 hours until the mortality counts are made;
(4) Edges of the Petri dish are sealed with Scotch tape to prevent escape of the fleas; and
(5) Dishes are not opened when test is read but fleas are observed under dissecting scope in the dishes. Some fleas will move under the filter paper so dish should be inverted to check. Fleas are considered dead if they cannot remain upright and jump.

Caenorhabditis elegans = experiment: Nematicidal activity against C. elegans (motility rating); type: in vivo, C. elegans (Bristol strain); parameters: key: 9: complete kill; 8: no motility; 7: markedly reduced motility in approximately 95% of worms; 6: reduced motility; 5: slightly reduced motility; 0: normal motility, same as controls; details: read at 4 and 24 hours post-immersion
Experimental: Cultures of C. elegans (Bristol strain from J. Lewis) are maintained on E. coli lawns on NG Agar Plates at 20° C. New cultures are established weekly.
Nematodes for testing are washed from 4-5 day old cultures using Fresh Ascaris Ringers Solution (FARS). The worms are further washed with FARS,-containing gentamycin, to reduce bacterial contamination and centrifuged to separate worms from wash solution. This procedure is repeated three times. The washed worms are then added to C. brigassae Maintenance Medium (CbMM), from GIBCOa to which is added gentamycin (600 units/ml) and mycostatin (0.5 mg/ml).
Compounds are dissolved in acetone and made up to volume with equal parts of water. The final test concentration of each compound in the mixture is 150 ppm. The test material is micropipetted (25 ul) into a single well of a 96-well sterile tissue culture plate (COSTAR)^b and the solvent allowed to evaporate. These "treated" plates are used immediately or stored in a refrigerator without apparent adverse effects on the compounds.
A freshly prepared volume ([…]) of C. elegans in CbMM is micropipetted into each treated well and several control wells per plate. Culture plates are incubated at 20° C.
Observations for efficacy are made under a dissecting microscope at 4 and 24 hours post-immersion. Immediately prior to reading the plate, it is gently tapped to stimulate the movement of the worms. Activity is judged based on the drug effects on motility of the adults and larvae. […] Other factors indicating activity are easily noted such as death, rigor mortis, contraction, coiling, paralysis, abnormal twitching, reduced worm population in 48 hours and other deviation from normal behavior.
Day 0 Inoculate E. Coli-NG Agar Dish With 30-40
Day 4 Harvest New C. Elegans Population
Add C. Elegans (25-100 µL) To "Medicated"
Observe for Activity at 4 hours Post-
Day 5 Observe For Activity

Dermacentor variabilis = experiment: Filter paper contact test against larval stages of the Dogtick; type: in vivo
Experimental: The test procedure used herein is the same procedure described in Example 2, for evaluating the arylpyrroles for control of Psoroptes cuniculi the Rabbit Ear Mite, with the following exceptions:
(1) Unfed larval ticks are obtained from egg masses laid by gravid female ticks removed from dogs and each replicate receives ticks from the same egg mass;
(2) Ticks survive longer than mites in the Petri dishes, thus readings are made 48 hours or longer after the test is initiated; and
(3) When reading the test it may be necessary to blow on the ticks to stimulate their movement.

Housefly Larvae = experiment: Inhibition of pupation of newly emerged housefly larvae; type: in vivo; details: Musca domestica, 168 h, one week, 27° C., corrected by Abbott's formula
Experimental: In this test system newly emerged housefly larvae are grown on an undefined medium of fermented whole milk and dried beef blood. Compounds are added to the milk and activity is determined by the failure of larvae to pupate.
The test is run in 1 oz. plastic medicine cups. Paper toweling is cut in pieces approximately 3.5×10 cm. Three of these pieces are folded accordion style and placed in each paper cup. A piece of masking tape is placed on the outside of the cup to facilitate numbering. Cups should be prepared prior to the day the test is to begin.
Newly hatched housefly larvae are obtained on the morning the test is to begin. The eggs are laid the night before and larvae usually begin to hatch by 9-10 AM the following morning.
Twenty-four hours before the initiation of the test, one half gallon of whole milk is divided into 5 1-liter beakers and placed in an incubator at 39° C.
The morning of the test, one 250 ml beaker is labeled for each treatment. The fermented milk is removed from the incubator, stirred and poured into each of the small beakers. The beakers are then returned to the incubator and 1-2 g of dried beef blood added to each beaker to distribute blood which will not dissolve. The beakers are again returned to the incubator.
Doses of compounds are calculated so that 0.1 ml contains the amount of compound to be added to 100 ml of milk. Compounds should be dissolved in acetone. 100 μl of acetone is added to each control beaker.
Each beaker is removed from incubator and placed on a magnetic stirrer. The compound is added and thoroughly mixed. Then 20 ml portions are removed and added to labelled test cups (4 reps/treatment). Cups are placed in stainless steel tray until all are prepared. […] The tray containing the cups are then placed in a plastic bag and maintained at room temperature.
The media that the fly eggs are laid in is spread out in a green or black pan so that larvae can be observed. Working under an illuminated magnifier 20 larvae are transferred into each cup using a fine paint brush. Each cup is then sealed in a Zip-Loc sandwich bag with a few pinholes in it.
Bags containing cups are placed on a flat tray and placed in a 27° C. incubator for one week. The majority of the larvae will have pupated at this point.
Trays are then removed from the incubator and the number of pupae in each bag recorded. The paper toweling is removed and examined closely for any pupae that have remained in the cups. Most of the pupae will be loose in the bag. A note is also made of any dead or live developed larvae. If there are larvae that appear capable of pupating, the bag may be returned to the incubator for a day to see if they will pupate.
The percent development of pupae is then calculated. The final results are expressed as a percent inhibition of pupation and are corrected for control mortality by using Abbott's formula.

[1] = test system: Trichostrongylus colubriformis; experiment: Control of helminths (T. colubriformis) in infected gerbils; type: in vivo, Trichostrongylus colubriformis (sheep origin) in gerbils
Description: Each test generally consists of 75 infected gerbils, randomly distributed 2 or 3 per cage (the number of animals per cage is consistent within a specific experiment). Generally, there are 8-9 untreated control gerbils (3-4 cages) per test. The remaining cages are assigned a treatment, usually 1 cage per compound or dose.
Compounds administered in diet are fed for 4 days. Animals treated by gavage or injection are generally treated on only 1 day (usually day 7).
In accordance with this test, gerbils are each orally infected by gavage, with about 400 Trichostrongylus colubriformis infective larvae of sheep origin. The infected animals are then permitted to feed and drink ad libitum for six days. On day 7 the infected gerbils are randomly placed in rodent cages 2 or 3 animals per cage. The animals in each cage are weighed and the feed for each cage weighed. If the treatment to be evaluated is medicated feed, said medicated feed is offered on day 7 and continued through day 11 of the trial. If the treatment to be evaluated is a single oral dose or a parenteral treatment, the animals are given the medication by gavage or injection on day 7 and receive unmedicated feed and water through day 11 of the trial. On day 11 the animals and their feed are weighed. Thereafter the animals are euthanized by CO2 inhalation and their small intestines removed, inverted on application sticks and incubated in tap water at 39° C. for 1-5 hours. The sticks and intestines are then discarded and the worms from each treatment counted to determine the % mortality of the worms as compared to untreated controls.

[2] = 24 h, read-out: 24 hour % Mortality
[3] = 4.0 μg/cm^2, 24 hour, read-out: 24 hour % Mortality

Structure (SMILES)	mortality at 0.01 µg/cm2, 0.01 µg/cm2 (Psoroptes cuniculi; [2])	mortality at 0.1 µg/cm2, 0.1 µg/cm2 (Psoroptes cuniculi; 0.1 μg/cm^2, 24 hour)	mortality at 1 µg/cm2, 1 µg/cm2 (Psoroptes cuniculi; 1.0 μg/cm^2, 24 hour)	mortality at 4 µg/cm2, 4 µg/cm2 (Psoroptes cuniculi; [3])	mortality at 16 µg/cm2, 16 µg/cm2 (Psoroptes cuniculi; 16.0 μg/cm^2, 24 hour)	mortality at 20 µg/cm2, 20 µg/cm2 (Ctenocephalides felis)	Rating Against C. Elegans 150 ppm (Caenorhabditis elegans)	mortality at 1 µg/cm2, 1 µg/cm2 (Dermacentor variabilis; 1.0 μg/cm^2, 48 hour)	mortality at 5 µg/cm2, 5 µg/cm2 (Dermacentor variabilis; 5.0 μg/cm^2, 48 hour)	mortality at 10 µg/cm2, 10 µg/cm2 (Dermacentor variabilis; 10.0 μg/cm^2, 48 hour)	inhibition at 10 ppm (Housefly Larvae)	% Helminth removal ([1]; 500 PPM in diet, 4 days)	% Helminth removal ([1]; single oral dose 10 mg/kg)	% Helminth removal ([1]; single oral dose 25 mg/kg)	inhibition at 1 ppm (Housefly Larvae; 1.0 ppm)	mortality at 4 µg/cm2, 4 µg/cm2 (Psoroptes cuniculi; [2])
CCOCn1c(Cl)c(Cl)c(C#N)c1-c1ccc(C(F)(F)F)cc1 [4,5-Dichloro-1-(ethoxymethyl)-2-(α,α,α-trifluoro-P-tolyl)pyrrole-3-carbonitrile]	48%	20%	100%	92%	100%	71%	9	52%	100%	97%	64%					
N#Cc1[nH]c(-c2ccc(Cl)cc2)c(C#N)c1Br [3-Bromo-5-(p-chlorophenyl)pyrrole-2,4-dicarbonitrile]				48%		47%	9				100%	54% and 36% and 50%	25%	18%	0%	
O=[N+]([O-])c1cc(C(F)(F)F)[nH]c1-c1ccc(Cl)c(Cl)c1 [2-(3,4-Dichlorophenyl)-3-nitro-5-(trifluoromethyl)-pyrrole]						73%	9				100%					100%
